Data from PubChem BioAssay AID330 (DTP/NCI, 2004).
Inconclusive results and toxic doses are left out.

System: P388 leukemia ip, CD2F1 mice, survival T/C
Test: NCI In Vivo Anticancer Drug Screen. Data for tumor model P388 Leukemia (intraperitoneal) in CD2F1 (CDF1) mice
Settings: endpoint: median survival time, higher = longer survival
Outline: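 Mice carrying the transplanted tumor received test compound or vehicle. Survival was recorded in each group, and the value is the treated-group measurement divided by that of the vehicle-treated control group.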

[1] = dose: 60.0 mg/kg/injection, schedule: Q01DX005 (ip), vehicle: saline with Tween-80
[2] = dose: 120.0 mg/kg/injection, schedule: Q01DX005 (ip), vehicle: saline with Tween-80
[3] = dose: 50.0 mg/kg/injection, schedule: Q01DX005 (ip), vehicle: Klucel (hydroxypropylcellulose) (HPC)
[4] = dose: 100.0 mg/kg/injection, schedule: Q01DX005 (ip), vehicle: Klucel (hydroxypropylcellulose) (HPC)
[5] = dose: 200.0 mg/kg/injection, schedule: Q01DX005 (ip), vehicle: Klucel (hydroxypropylcellulose) (HPC)
[6] = dose: 50.0 mg/kg/injection, schedule: Q01DX009 (ip), vehicle: saline
[7] = dose: 100.0 mg/kg/injection, schedule: Q01DX009 (ip), vehicle: saline
[8] = dose: 200.0 mg/kg/injection, schedule: Q01DX009 (ip), vehicle: saline
[9] = dose: 50.0 mg/kg/injection, schedule: Q01DX009 (ip), vehicle: saline with Tween-80
[10] = dose: 100.0 mg/kg/injection, schedule: Q01DX009 (ip), vehicle: saline with Tween-80
[11] = dose: 200.0 mg/kg/injection, schedule: Q01DX009 (ip), vehicle: saline with Tween-80

CCOC1=C(C)Sc2ccccc2N=C1c1ccccc1
T/C (dose: 100.0 mg/kg/injection, schedule: Q04DX002 (ip), vehicle: Klucel + Tween-80): 99 % of control | T/C (dose: 200.0 mg/kg/injection, schedule: Q04DX002 (ip), vehicle: Klucel + Tween-80): 93 % of control | T/C (dose: 400.0 mg/kg/injection, schedule: Q04DX002 (ip), vehicle: Klucel + Tween-80): 98 % of control

C=CCc1ccc(O)c(OC)c1
T/C (dose: 50.0 mg/kg/injection, schedule: Q01DX009 (ip), vehicle: other): 101 % of control | T/C (dose: 100.0 mg/kg/injection, schedule: Q01DX009 (ip), vehicle: other): 107 % of control

Nc1c(Cl)ccc2cccnc12
T/C (dose: 50.0 mg/kg/injection, schedule: Q01DX005 (ip), vehicle: saline + Tween-80 + alcohol): 107 % of control | T/C (dose: 100.0 mg/kg/injection, schedule: Q01DX005 (ip), vehicle: saline + Tween-80 + alcohol): 107 % of control | T/C (dose: 200.0 mg/kg/injection, schedule: Q01DX005 (ip), vehicle: saline + Tween-80 + alcohol): 110 % of control

O=C(Oc1ccccc1)N1CCCSC1=S
T/C [1]: 98 % of control | T/C [2]: 100 % of control

CC1(C)C=Cc2c(cc(O)c3c(=O)c4cccnc4oc23)O1
T/C [3]: 90 % of control | T/C [4]: 102 % of control | T/C [5]: 90 % of control

CC(O)c1ccc(C(C)O)cc1 (configuration not stated)
T/C [6]: 91 % of control | T/C [7]: 86 % of control | T/C [8]: 96 % of control

C/C(=C\C(=O)c1ccccc1)N1CCN(c2ccc(F)cc2)CC1
T/C [3]: 102 % of control | T/C [4]: 105 % of control | T/C [5]: 96 % of control

Brc1ccc(/C=C/c2ccnnc2)cc1
T/C [6]: 93 % of control | T/C [7]: 94 % of control | T/C [8]: 100 % of control

N#CC1CC2OC1CC(=O)C2(O)c1occc(=O)c1O (configuration not stated)
T/C [9]: 100 % of control | T/C [10]: 107 % of control | T/C [11]: 105 % of control

Cn1c(N)nc(N)c(NC=O)c1=O
T/C [3]: 101 % of control | T/C [4]: 103 % of control | T/C [5]: 101 % of control

COc1ccccc1NC(=S)Nc1ccccc1OC
T/C [10]: 100 % of control | T/C (dose: 100.0 mg/kg/injection, schedule: Q04DX003 (ip), vehicle: saline sonified): 100 % of control | T/C [11]: 87 % of control | T/C (dose: 200.0 mg/kg/injection, schedule: Q04DX003 (ip), vehicle: saline sonified): 100 % of control | T/C (dose: 400.0 mg/kg/injection, schedule: Q01DX009 (ip), vehicle: saline with Tween-80): 91 % of control | T/C (dose: 400.0 mg/kg/injection, schedule: Q04DX003 (ip), vehicle: saline sonified): 100 % of control

CCCCCCCCCC[N+]1(CC)CCCCCC1
T/C (dose: 3.12 mg/kg/injection, schedule: Q01DX009 (ip), vehicle: saline): 90 % of control | T/C (dose: 6.25 mg/kg/injection, schedule: Q01DX009 (ip), vehicle: saline): 98 % of control

CCc1cc2c(cc1C(=O)CBr)C(C)(C)CCC2(C)C
T/C (dose: 6.25 mg/kg/injection, schedule: Q01DX009 (ip), vehicle: saline with Tween-80): 109 % of control | T/C (dose: 12.5 mg/kg/injection, schedule: Q01DX009 (ip), vehicle: saline with Tween-80): 113 % of control | T/C (dose: 12.5 mg/kg/injection, schedule: Q04DX003 (ip), vehicle: saline with Tween-80): 118 % of control | T/C (dose: 25.0 mg/kg/injection, schedule: Q04DX003 (ip), vehicle: saline with Tween-80): 113 % of control

Cc1nc(N)[nH]c(=O)c1CCCC#N
T/C (dose: 60.0 mg/kg/injection, schedule: Q01DX005 (ip), vehicle: Klucel (hydroxypropylcellulose) (HPC)): 105 % of control | T/C (dose: 120.0 mg/kg/injection, schedule: Q01DX005 (ip), vehicle: Klucel (hydroxypropylcellulose) (HPC)): 108 % of control

Cc1ccc([N+](=O)[O-])cc1NC(=O)Nc1onc(C)c1C
T/C [1]: 87 % of control | T/C [2]: 93 % of control | T/C (dose: 240.0 mg/kg/injection, schedule: Q01DX005 (ip), vehicle: saline with Tween-80): 88 % of control

COc1ccc(CN2COc3c(cc(C)c4cccnc34)C2)cc1
T/C [9]: 98 % of control | T/C [11]: 111 % of control
